Measurements reported in US10654816B2, “Compounds and compositions for treating conditions associated with NLRP activity” (NOVARTIS INFLAMMASOME RESEARCH, INC., priority 2017, dated 2020).

The molecules below were run on IL-1β production in PMA-differentiated THP-1 cells (assay: IL-1β production in PMA-differentiated THP-1 cells stimulated with gramicidin (hTHP-1 assay, HTRF readout; Procedures 1-3)). Details: Homo sapiens, THP-1, hTHP-1 assay containing 2% fetal bovine serum; average; class symbols; read-out: hTHP-1 IC50 (Average IC50 of compounds in hTHP-1 assay).
Assay type: cell-based, human
Method: The Following Protocol is Suitable for Testing the Activity of the Compounds Disclosed Herein. Procedure 1: IL-1B Production in PMA-Differentiated THP-1 Cells Stimulated with Gramicidin.
THP-1 cells were purchased from the American Type Culture Collection and sub-cultured according to instructions from the supplier. Cells were cultured in complete RPMI 1640 (containing 10% heat inactivated FBS, penicillin (100 units/ml) and streptomycin (100 μg/ml)), and maintained in log phase prior to experimental setup. Prior to the experiment, compounds were dissolved in dimethyl sulfoxide (DMSO) to generate a 30 mM stock. The compound stock was first pre-diluted in DMSO to 3, 0.34, 0.042 and 0.0083 mM intermediate concentrations and subsequently spotted using Echo550 liquid handler into an empty 384-well assay plate to achieve desired final concentration (e.g. 100, 33, 11, 3.7, 1.2, 0.41, 0.14, 0.046, 0.015, 0.0051, 0.0017 μM). DMSO was backfilled in the plate to achieve a final DMSO assay concentration of 0.37%. The plate was then sealed and stored at room temperature until required.
THP-1 cells were treated with PMA (Phorbol 12-myristate 13-acetate) (20 ng/ml) for 16-18 hours. On the day of the experiment the media was removed and adherent cells were detached with trypsin for 5 minutes. Cells were then harvested, washed with complete RPMI 1640, spun down, and resuspended in RPMI 1640 (containing 2% heat inactivated FBS, penicillin (100 units/ml) and streptomycin (100 μg/ml). The cells were plated in the 384-well assay plate containing the spotted compounds at a density of 50,000 cells/well (final assay volume 50 μl). Cells were incubated with compounds for 1 hour and then stimulated with gramicidin (5 μM) (Enzo) for 2 hours. Plates were then centrifuged at 340 g for 5 min. Cell free supernatant (40 μL) was collected using a 96-channel PlateMaster (Gilson) and the production of IL-1β was evaluated by HTRF (cisbio). The plates were incubated for 18 h at 4° C. and read using the preset HTRF program (donor emission at 620 nm, acceptor emission at 668 nm) of the SpectraMax i3x spectrophotometer (Molecular Devices, software SoftMax 6). A vehicle only control and a dose titration of CRID3 (100-0.0017 μM) were run concurrently with each experiment.
Procedure 2: IL-1β Production in PMA-Differentiated THP-1 Cells Stimulated with Gramicidin.
THP-1 cells were purchased from the American Type Culture Collection and sub-cultured according to instructions from the supplier. Prior to experiments, cells were cultured in complete RPMI 1640 (containing 10% heat inactivated FBS, penicillin (100 units/ml) and streptomycin (100 μg/ml)), and maintained in log phase prior to experimental setup. Prior to the experiment THP-1 were treated with PMA (Phorbol 12-myristate 13-acetate) (20 ng/ml) for 16-18 hours. Compounds were dissolved in dimethyl sulfoxide (DMSO) to generate a 30 mM stock.
On the day of the experiment the media was removed and adherent cells were detached with trypsin for 5 minutes. Cells were then harvested, washed with complete RPMI 1640, spun down, resuspended in RPMI 1640 (containing 2% heat inactivated FBS, penicillin (100 units/ml) and streptomycin (100 μg/ml). The cells were plated in a 384-well plate at a density of 50,000 cells/well (final assay volume 50 μl). Compounds were first dissolved in assay medium to obtain a 5× top concentration of 500 μM. 10 step dilutions (1:3) were then undertaken in assay medium containing 1.67% DMSO. 5× compound solutions were added to the culture medium to achieve desired final concentration (e.g. 100, 33, 11, 3.7, 1.2, 0.41, 0.14, 0.046, 0.015, 0.0051, 0.0017 μM). Final DMSO concentration was at 0.37%. Cells were incubated with compounds for 1 hour and then stimulated with gramicidin (5 μM) (Enzo) for 2 hours. Plates were then centrifuged at 340 g for 5 min. Cell free supernatant (40 μL) was collected using a 96-channel PlateMaster (Gilson) and the production of IL-1β was evaluated by HTRF (cisbio). […]

Question: How did the IC50 turn out when `Cc1oc([S@](N)(=O)=NC(=O)Nc2c3c(cc4c2CCC4)CCC3)cc1C(C)(C)O` (single isomer, unassigned) [Example 3] was run?
Answer: Its IC50 is 0.2 to 1 µM.

Question: Which IC50 does the source give for `CC(C)c1cc(F)cc(C(C)C)c1NC(=O)N=S(N)(=O)c1ccc(C(C)(C)O)cc1` (single isomer, unassigned) [Example 83, (S)- or (R)-N′-(4-fluoro-2,6-diisopropylphenylcarbamoyl)-4-(2-hydroxypropan-2-yl)benzenesulfonimidamide] here?
Answer: Its IC50 is 1 to 5 µM.

Question: Which IC50 does the source give for `Cc1cc(C(C)(C)O)sc1S(N)(=O)=NC(=O)Nc1c(C(C)C)cc(OC(F)F)cc1C(C)C` (single isomer, unassigned) [Example 109, (S)- or (R)-N′-(4-(difluoromethoxy)-2,6-diisopropylphenylcarbamoyl)-5-(2-hydroxypropan-2-yl)-3-methylthiophene-2-sulfonimidamide] here?
Answer: The IC50 was 0.2 to 1 µM.

Question: Which IC50 does the source give for `Cc1cc(C(C)(C)O)ccc1S(N)(=O)=NC(=O)Nc1c(C(C)C)cc(OC(F)F)cc1C1CC1` (single isomer, unassigned) [Example 119, (S)- or (R)-N′-(2-cyclopropyl-4-(difluoromethoxy)-6-isopropylphenylcarbamoyl)-4-(2-hydroxypropan-2-yl)-2-methylbenzenesulfonimidamide] here?
Answer: Its IC50 is 5 to 30 µM.

Question: For `CC(C)c1cc(F)cc(C(C)C)c1NC(=O)N=S(N)(=O)c1ccc(CN(C)C)cc1` (single isomer, unassigned) [Example 132, (S)- or (R)-4-((dimethylamino)-methyl)-N′-(4-fluoro-2,6-diisopropylphenylcarbamoyl)-benzenesulfonimidamide], which IC50 is on record?
Answer: Its IC50 is 1 to 5 µM.

Question: How did the IC50 turn out when `CC(C)c1cc(OC(F)F)cc(C2CC2)c1NC(=O)N=S(N)(=O)c1ccc(CN(C)C)cc1` (single isomer, unassigned) [Example 135, (R)- or (S)-N′-(2-cyclopropyl-4-(difluoromethoxy)-6-isopropylphenylcarbamoyl)-4-((dimethylamino)methyl)benzenesulfonimidamide] was run?
Answer: Its IC50 is 1 to 5 µM.

Question: `CC(C)c1cc(F)cc(C(C)C)c1NC(=O)N=S(N)(=O)c1ccc(S(C)(=O)=O)cc1` (single isomer, unassigned) [Example 145, (R)- or (S)-N′-(4-fluoro-2,6-diisopropylphenylcarbamoyl)-4-(methylsulfonyl)-benzenesulfonimidamide] was tested. Which IC50 did it give?
Answer: The IC50 was 5 to 30 µM.

Question: Which IC50 does the source give for `CC(C)c1cc(OC(F)F)cc(C2CC2)c1NC(=O)N=S(N)(=O)c1ccc(C(C)(C)O)cc1F` (single isomer, unassigned) [Example 166, (S)- or (R)-N′-((2-cyclopropyl-4-(difluoromethoxy)-6-isopropylphoxyproyl)-2-fluoro-4-(2-hydroxypropan-2-yl)benzenesulfonimidamide] here?
Answer: The IC50 was 0.2 to 1 µM.

Question: How did the IC50 turn out when `CC(C)(O)c1ccc(F)c(S(N)(=O)=NC(=O)Nc2c3c(c(F)c4c2CCC4)CCC3)c1` (single isomer, unassigned) [Example 168, (S)- or (R)-2-fluoro-N′-((8-fluoro-1,2,3,5,6,7-hexahydro-s-indacen-4-yl)carbamoyl)-5-(2-hydroxypropan-2-yl)benzenesulfonimidamide] was run?
Answer: Its IC50 is 0.2 to 1 µM.

Question: Which IC50 does the source give for `CC(C)c1cc(C#N)cc(C(C)C)c1NC(=O)N=S(N)(=O)c1ccc(C(C)(C)O)c(CO)c1` (single isomer, unassigned) [Example 188, (S)- or (R)-N′-((4-cyano-2,6-diisopropylphenyl)carbamoyl)-3-(hydroxymethyl)-4-(2-hydroxypropan-2-yl)benzenesulfonimidamide] here?
Answer: The IC50 was 1 to 5 µM.

Question: How did the IC50 turn out when `CC(C)c1cc(C#N)cc(C(C)C)c1NC(=O)N=S(N)(=O)c1sc(C(C)(C)O)nc1CO` (single isomer, unassigned) [Example 192, (S)- or (R)-N′-((4-cyano-2,6-diisopropylphenyl)carbamoyl)-4-(hydroxymethyl)-2-(2-hydroxypropan-2-yl)thiazole-5-sulfonimidamide] was run?
Answer: Its IC50 is 0.2 to 1 µM.

Same assay, conditions: Homo sapiens, THP-1, hTHP-1 assay containing 2% fetal bovine serum; average; given as bound; read-out: hTHP-1 IC50 (Average IC50 of compounds in hTHP-1 assay)

Question: Which IC50 does the source give for `CC(C)c1cc(F)cc(C(C)C)c1NC(=O)N=S(N)(=O)c1ccc(C(C)(C)O)cc1` (single isomer, unassigned) [Example 84, (R)- or (S)-N′-(4-fluoro-2,6-diisopropylphenylcarbamoyl)-4-(2-hydroxypropan-2-yl)benzenesulfonimidamide] here?
Answer: The IC50 was greater than 30 µM.

Question: How did the IC50 turn out when `Cc1cc(C(C)(C)O)sc1S(N)(=O)=NC(=O)Nc1c(C(C)C)cc(OC(F)F)cc1C(C)C` (single isomer, unassigned) [Example 110, (R)- or (S)-N′-(4-(difluoromethoxy)-2,6-diisopropylphenylcarbamoyl)-5-(2-hydroxypropan-2-yl)-3-methylthiophene-2-sulfonimidamide] was run?
Answer: The IC50 was greater than 30 µM.

Question: Which IC50 does the source give for `Cc1cc(C(C)(C)O)ccc1S(N)(=O)=NC(=O)Nc1c(C(C)C)cc(OC(F)F)cc1C1CC1` (single isomer, unassigned) [Example 120, (R)- or (S)-N′-(2-cyclopropyl-4-(difluoromethoxy)-6-isopropylphenylcar-bamoyl)-4-(2-hydroxypropan-2-yl)-2-methylbenzenesulfonimidamidc] here?
Answer: The IC50 was greater than 30 µM.

Question: How did the IC50 turn out when `CC(C)c1cc(F)cc(C(C)C)c1NC(=O)N=S(N)(=O)c1ccc(CN(C)C)cc1` (single isomer, unassigned) [Example 133, (R)- or (S)-4-((dimethylamino)methyl)-N′-(4-fluoro-2,6-diisopropylphenyl-carbamoyl)benzenesulfonimidamide] was run?
Answer: Its IC50 is greater than 30 µM.

Question: For `CC(C)c1cc(OC(F)F)cc(C2CC2)c1NC(=O)N=S(N)(=O)c1ccc(CN(C)C)cc1` (single isomer, unassigned) [Example 134, (S)- or (R)-N′-(2-cyclopropyl-4-(difluoromethoxy)-6-isopropylphenylcarbamoyl)-4-((dimethylamino)methyl)benzenesulfonimidamide], which IC50 is on record?
Answer: Its IC50 is greater than 30 µM.

Question: `CC(C)c1cc(F)cc(C(C)C)c1NC(=O)N=S(N)(=O)c1ccc(S(C)(=O)=O)cc1` (single isomer, unassigned) [Example 144, (S)- or (R)-N′-(4-fluoro-2,6-diisopropylphenylcarbamoyl)-4-(methylsulfonyl)-benzenesulfonimidamide] was tested. Which IC50 did it give?
Answer: Its IC50 is greater than 30 µM.

Question: How did the IC50 turn out when `CC(C)c1cc(C#N)cc(C(C)C)c1NC(=O)N=S(N)(=O)c1ccc(C(C)(C)O)c(CO)c1` (single isomer, unassigned) [Example 189, (R)- or (S)-N′-((4-cyano-2,6-diisopropylphoxyproyl)-3-(hydroxymethyl)-4-(2-hydroxypropan-2-yl)benzenesulfonimidamide] was run?
Answer: The IC50 was greater than 30 µM.

Same assay, conditions: Homo sapiens, THP-1, hTHP-1 assay containing 2% fetal bovine serum; average; numeric bound printed without unit; read-out: hTHP-1 IC50 (Average IC50 of compounds in hTHP-1 assay)

Question: `CC(C)c1cc(OC(F)F)cc(C2CC2)c1NC(=O)N=S(N)(=O)c1ccc(C(C)(C)O)cc1F` (single isomer, unassigned) [Example 167, (R)- or (S)-N′-((2-cyclopropyl-4-(difluoromethoxy)-6-isopropylphenyl)carbamoyl)-2-fluoro-4-(2-hydroxypropan-2-yl)benzenesulfonimidamide] was tested. Which IC50 did it give?
Answer: The IC50 was greater than 11.2 µM.

Question: With `CC(C)(O)c1ccc(F)c(S(N)(=O)=NC(=O)Nc2c3c(c(F)c4c2CCC4)CCC3)c1` (single isomer, unassigned) [Example 169, (S)- or (R)-2-fluoro-N′-((8-fluoro-1,2,3,5,6,7-hexahydro-s-indacen-4-yl)carbamoyl)-5-(2-hydroxypropan-2-yl)benzenesulfonimidamide] as the molecule, how does the IC50 read?
Answer: The IC50 was greater than 5.59 µM.
